Target: T1, USP28 (His-tagged USP28-FL-mammalian) (Homo sapiens, UniProt Q96RU2)
T1 construct: Expression of USP28 (1-1077)-TEV-6*His (pTT5 vector); made in house; host or cells: Expi293f cells (pTT5 vector)
T1 sequence (Q96RU2 1-1077): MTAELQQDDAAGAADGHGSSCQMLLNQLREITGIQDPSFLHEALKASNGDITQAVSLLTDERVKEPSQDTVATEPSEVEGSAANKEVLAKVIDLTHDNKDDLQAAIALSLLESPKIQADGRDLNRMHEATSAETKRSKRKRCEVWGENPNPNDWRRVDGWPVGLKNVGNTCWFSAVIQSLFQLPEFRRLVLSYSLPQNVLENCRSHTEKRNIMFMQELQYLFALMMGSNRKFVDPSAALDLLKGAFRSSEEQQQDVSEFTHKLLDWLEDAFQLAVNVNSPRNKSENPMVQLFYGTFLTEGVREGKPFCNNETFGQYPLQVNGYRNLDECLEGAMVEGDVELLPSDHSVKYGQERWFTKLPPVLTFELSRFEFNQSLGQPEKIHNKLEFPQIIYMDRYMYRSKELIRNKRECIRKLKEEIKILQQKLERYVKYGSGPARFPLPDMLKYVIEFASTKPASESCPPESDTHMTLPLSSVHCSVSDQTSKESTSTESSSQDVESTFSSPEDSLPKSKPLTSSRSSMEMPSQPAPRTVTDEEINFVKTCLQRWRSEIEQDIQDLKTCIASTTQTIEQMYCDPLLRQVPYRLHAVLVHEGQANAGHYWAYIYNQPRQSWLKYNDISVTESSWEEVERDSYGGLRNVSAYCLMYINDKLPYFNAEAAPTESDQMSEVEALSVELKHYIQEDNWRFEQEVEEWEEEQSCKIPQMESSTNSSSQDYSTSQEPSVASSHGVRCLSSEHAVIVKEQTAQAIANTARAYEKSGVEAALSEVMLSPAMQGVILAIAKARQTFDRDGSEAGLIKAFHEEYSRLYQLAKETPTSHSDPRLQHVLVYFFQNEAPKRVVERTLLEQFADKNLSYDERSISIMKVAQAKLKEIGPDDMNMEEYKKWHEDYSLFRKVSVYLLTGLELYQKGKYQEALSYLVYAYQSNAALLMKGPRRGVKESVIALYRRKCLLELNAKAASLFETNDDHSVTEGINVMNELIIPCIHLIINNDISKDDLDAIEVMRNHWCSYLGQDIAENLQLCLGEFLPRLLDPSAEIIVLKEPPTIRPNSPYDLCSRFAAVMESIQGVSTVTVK
Experiment: Ubiquitin-Rhodamine 110 Assay for USP28 Activity, Example A-1(a)
Assay type: biochemical
Conditions: Ubiquitin-Rhodamine 110 assay, Example A-1(a); read-out: USP28 A-1(a) IC50 range
Summary of the method: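 IC50 from 4-parameter logistic fit of percent inhibition versus no-enzyme and DMSO controls; compounds 25 μM to 1.3 nM, 3-fold. Ub-Rh110 cleavage (25 nM, below Km) by […] mammalian-expressed USP28-FL-His ran 45 min at room temperature, stopped with 10 mM citric acid, read ex 485/em 535.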

Row | Compound | IC50 [nM]
1 | CCn1ccc2cc(C(=O)N[C@H]3CCc4nc(N5C[C@H](NC)[C@@H](OC)C5)ccc4C3)cnc21 [Example 402, 1-ethyl-N-[(6S)-2-[(3S,4S)-3-methoxy-4-(methylamino)pyrrolidin-1-yl]-5,6,7,8-tetrahydroquinolin-6-yl]-1H-pyrrolo[2,3-b]pyridine-5-carboxamide] | 200 to 2000
2 | Cc1ccc2c(N)c(C(=O)N[C@H]3COc4cc(N5CC[C@]6(C5)OCC[C@H]6N)ccc4C3)sc2n1 [Example 410, 3-amino-N-[(3R)-7-[(4R,5R)-4-amino-1-oxa-7-azaspiro[4.4]nonan-7-yl]-3,4-dihydro-2H-1-benzopyran-3-yl]-6-methylthieno[2,3-b]pyridine-2-carboxamide] | 1 to 50
3 | Cc1ccc2c(N)c(C(=O)N[C@H]3CCc4nc(N5CC[C@@]6(C5)OCC[C@H]6N)ccc4C3)sc2n1 [Example 405, 3-amino-N-[(6S)-2-[(4R,5S)-4-amino-1-oxa-7-azaspiro[4.4]nonan-7-yl]-5,6,7,8-tetrahydroquinolin-6-yl]-6-methylthieno[2,3-b]pyridine-2-carboxamide] | 50 to 200
4 | Cc1ccc2c(N)c(C(=O)N(C)[C@@H]3COc4cc(N5CCNCC5)cc(F)c4C3)sc2n1 [Example 10-16, 3-amino-N-[(3S)-5-fluoro-7-(piperazin-1-yl)-3,4-dihydro-2H-1-benzopyran-3-yl]-N,6-dimethylthieno[2,3-b]pyridine-2-carboxamide] | > 2000
